How the values were obtained:
[1] = target: PARG (Homo sapiens, UniProt Q86W56); test: Biochemical assay (PARG, TFMU-ADPr substrate)
[2] = test system: HCC1806; test: Cell viability assay (CellTiter-Glo); format: cell-based, Human; details: Homo sapiens, HCC1806, 168 h, HCC1806, 7 days, CellTiter-Glo; read-out: IC50 (nM) in cell viability assay

PARG, sequence (Q86W56 whole entry): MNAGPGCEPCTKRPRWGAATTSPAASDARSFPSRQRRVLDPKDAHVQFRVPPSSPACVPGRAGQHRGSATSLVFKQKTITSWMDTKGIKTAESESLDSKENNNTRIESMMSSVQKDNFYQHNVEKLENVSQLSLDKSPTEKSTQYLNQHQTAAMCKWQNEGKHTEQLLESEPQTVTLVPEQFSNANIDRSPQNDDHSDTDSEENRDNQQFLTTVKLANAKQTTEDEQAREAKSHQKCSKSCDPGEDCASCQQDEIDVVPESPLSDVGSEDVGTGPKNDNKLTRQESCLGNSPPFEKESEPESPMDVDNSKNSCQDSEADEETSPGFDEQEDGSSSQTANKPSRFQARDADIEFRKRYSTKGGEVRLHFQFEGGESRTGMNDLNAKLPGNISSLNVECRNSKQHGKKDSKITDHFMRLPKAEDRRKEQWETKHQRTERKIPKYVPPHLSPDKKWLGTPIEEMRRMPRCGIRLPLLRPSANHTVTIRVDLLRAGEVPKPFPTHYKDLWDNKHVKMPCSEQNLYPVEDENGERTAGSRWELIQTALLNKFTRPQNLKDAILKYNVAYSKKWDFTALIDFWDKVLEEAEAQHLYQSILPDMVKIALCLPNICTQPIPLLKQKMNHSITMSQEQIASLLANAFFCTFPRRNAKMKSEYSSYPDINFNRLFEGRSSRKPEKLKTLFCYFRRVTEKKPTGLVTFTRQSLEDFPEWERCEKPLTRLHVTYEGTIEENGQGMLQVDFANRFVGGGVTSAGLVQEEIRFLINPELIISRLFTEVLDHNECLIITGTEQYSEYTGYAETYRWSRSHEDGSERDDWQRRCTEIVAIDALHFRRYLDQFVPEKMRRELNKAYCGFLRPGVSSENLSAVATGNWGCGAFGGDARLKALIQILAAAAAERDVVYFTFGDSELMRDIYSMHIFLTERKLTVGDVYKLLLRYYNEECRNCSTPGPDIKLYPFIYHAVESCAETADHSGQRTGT

SMILES	IC50 ([1]; PARG, TFMU-ADPr substrate) [nM]	IC50 [2] [nM]	IC50 ([1]; 4 nM PARG, 66.2 uM TFMU-ADPr, 3 min at room temperature) [nM]
CC(C)C(=O)N1CCN(c2c(F)c(S(=O)(=O)NC3(C#N)CC3)cn3c(-c4nnc(C(F)(F)F)s4)ncc23)CC1 [Example 390, N-(1-cyanocyclopropyl)-7-fluoro-8-(4-isobutyrylpiperazin-1-yl)-3-(5-(trifluoromethyl)-1,3,4-thiadiazol-2-yl)imidazo[1,5-a]pyridine-6-sulfonamide]	28.2	793	
CC(C)C(=O)N1CCN(c2cc(S(=O)(=O)NC3CC3)cn3c(-c4nnc(C(F)(F)F)s4)nc(Cl)c23)CC1 [Example 121, 1-chloro-N-cyclopropyl-8-(4-isobutyrylpiperazin-1-yl)-3-(5-(trifluoromethyl)-1,3,4-thiadiazol-2-yl)imidazo[1,5-a]pyridine-6-sulfonamide]	60.1	2590	< 100
N#CC1(NS(=O)(=O)c2cc(N3CCN(C(=O)[C@@H]4C[C@@H](O)CN4)CC3)c3cnc(-c4nnc(C(F)(F)F)s4)n3c2)CC1 [Example 279, N-(1-cyanocyclopropyl)-8-(4-((2S,4R)-4-hydroxypyrrolidine-2-carbonyl)piperazin-1-yl)-3-(5-(trifluoromethyl)-1,3,4-thiadiazol-2-yl)imidazo[1,5-a]pyridine-6-sulfonamide]	95.5	29900	
CC(CO)C(=O)N1CCN(c2cc(S(=O)(=O)NC3(C#N)CC3)cn3c(-c4nnc(C(F)(F)F)s4)ncc23)CC1 (stereo not shown) [Example 259, N-(1-cyanocyclopropyl)-8-(4-(3-hydroxy-2-methylpropanoyl)piperazin-1-yl)-3-(5-(trifluoromethyl)-1,3,4-thiadiazol-2-yl)imidazo[1,5-a]pyridine-6-sulfonamide]	45.7	1500	
CC(=O)N1[C@@H](C)CN(c2cc(S(=O)(=O)NC3(C)COC3)cn3c(-c4nnc(C(F)F)s4)ncc23)C[C@@H]1C [Example 401, 8-((3S,5S)-4-acetyl-3,5-dimethylpiperazin-1-yl)-3-(5-(difluoromethyl)-1,3,4-thiadiazol-2-yl)-N-(3-methyloxetan-3-yl)imidazo[1,5-a]pyridine-6-sulfonamide]	158	2800	

Stronger by IC50 ([1]; PARG, TFMU-ADPr substrate), values ahead:

IC50 ([1]; PARG, TFMU-ADPr substrate) [nM]	IC50 [2] [nM]	IC50 ([1]; 4 nM PARG, 66.2 uM TFMU-ADPr, 3 min at room temperature) [nM]	SMILES
13.2	4000		CC(C)OC(=O)N1CCN(c2cc(S(=O)(=O)NC3(C#N)CC3)cn3c(-c4nnc(C(F)(F)F)s4)ncc23)CC1 [Example 234, isopropyl 4-(6-(N-(1-cyanocyclopropyl)sulfamoyl)-3-(5-(trifluoromethyl)-1,3,4-thiadiazol-2-yl)imidazo[1,5-a]pyridin-8-yl)piperazine-1-carboxylate]
6.11	89		C[C@@H]1CN(c2cc(S(=O)(=O)NC3(C)CC3)cn3c(-c4nnc(C(F)(F)F)s4)ncc23)CCN1C(=O)[C@H]1CCN1C [Example 306, 8-((R)-3-methyl-4-((R)-1-methylazetidine-2-carbonyl)piperazin-1-yl)-N-(1-methylcyclopropyl)-3-(5-(trifluoromethyl)-1,3,4-thiadiazol-2-yl)imidazo[1,5-a]pyridine-6-sulfonamide]
0.96	5700		C[C@@H]1CN(c2cc(S(=O)(=O)NC3(C)CC3)cn3c(-c4nnc(C(F)F)s4)ncc23)CCN1C(=O)C1CNC1 [Example 315, (R)-8-(4-(azetidine-3-carbonyl)-3-methylpiperazin-1-yl)-3-(5-(difluoromethyl)-1,3,4-thiadiazol-2-yl)-N-(1-methylcyclopropyl)imidazo[1,5-a]pyridine-6-sulfonamide]
0.15	6.13		COC1(C(=O)N2CCN(c3cc(S(=O)(=O)NC4(C)CC4)cn4c(-c5nnc(C(F)(F)F)s5)ncc34)CC2)CCC1 [Example 327, 8-(4-(1-methoxycyclobutane-1-carbonyl)piperazin-1-yl)-N-(1-methylcyclopropyl)-3-(5-(trifluoromethyl)-1,3,4-thiadiazol-2-yl)imidazo[1,5-a]pyridine-6-sulfonamide]
